Molecular target: T1, HCN4 (Homo sapiens, UniProt Q9Y3Q4)
T1 sequence (Q9Y3Q4 1-1203): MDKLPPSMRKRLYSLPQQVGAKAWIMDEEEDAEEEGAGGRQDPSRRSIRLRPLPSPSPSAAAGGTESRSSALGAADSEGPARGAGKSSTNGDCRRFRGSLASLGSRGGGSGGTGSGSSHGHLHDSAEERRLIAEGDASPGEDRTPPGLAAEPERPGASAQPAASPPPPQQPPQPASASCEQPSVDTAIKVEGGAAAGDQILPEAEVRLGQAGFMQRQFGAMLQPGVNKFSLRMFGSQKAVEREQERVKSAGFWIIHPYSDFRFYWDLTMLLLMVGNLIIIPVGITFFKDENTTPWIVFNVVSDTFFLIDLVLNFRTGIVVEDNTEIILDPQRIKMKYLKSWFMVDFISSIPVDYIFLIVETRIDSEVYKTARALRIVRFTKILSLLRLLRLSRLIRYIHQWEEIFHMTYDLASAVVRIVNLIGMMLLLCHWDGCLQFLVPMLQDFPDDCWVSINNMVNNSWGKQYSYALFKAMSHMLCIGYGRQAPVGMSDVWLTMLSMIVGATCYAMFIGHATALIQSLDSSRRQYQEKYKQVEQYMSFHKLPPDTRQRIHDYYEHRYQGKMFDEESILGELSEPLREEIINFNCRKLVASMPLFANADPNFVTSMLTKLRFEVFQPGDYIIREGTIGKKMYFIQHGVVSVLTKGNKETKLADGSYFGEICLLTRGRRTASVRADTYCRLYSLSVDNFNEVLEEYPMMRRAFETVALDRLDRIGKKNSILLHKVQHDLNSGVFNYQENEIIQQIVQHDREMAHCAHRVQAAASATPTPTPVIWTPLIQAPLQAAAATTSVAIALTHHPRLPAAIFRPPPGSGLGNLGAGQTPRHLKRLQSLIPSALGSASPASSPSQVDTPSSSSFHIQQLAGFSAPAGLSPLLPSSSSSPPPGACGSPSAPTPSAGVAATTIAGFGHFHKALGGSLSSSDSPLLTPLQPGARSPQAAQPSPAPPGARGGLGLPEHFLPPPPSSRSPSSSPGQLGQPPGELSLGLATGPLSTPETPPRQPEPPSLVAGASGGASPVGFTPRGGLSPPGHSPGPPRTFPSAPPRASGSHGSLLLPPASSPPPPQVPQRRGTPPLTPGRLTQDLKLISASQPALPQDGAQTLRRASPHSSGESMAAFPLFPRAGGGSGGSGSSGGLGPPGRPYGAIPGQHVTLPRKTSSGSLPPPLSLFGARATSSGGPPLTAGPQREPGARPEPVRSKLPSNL
Assay: Ion channel screening
Type: cell-based
Details: 10 µM
From the text: Ion channel screening. […] The parameters measured were the maximum inward current evoked on stepping to -20 mV from the 1st and 26th pulse. Human Kv4.3/KChIP2 currents were evoked from a holding potential of -80 mV by a series of four 500 msec pulses to 0 mV using a 1000 msec interval between pulses. The parameter measured was the amplitude of the outward current 50 msec after the onset of the 4th voltage step to 0 mV. […] Human Kv1.5 currents were evoked by a single pulse from a holding potential of -80 mV to a potential of 0 mV for 4 sec before returning to -80 mV. The parameters measured were the maximum amplitude of outward currents evoked at the beginning of the voltage pulse and at the end of the voltage step from -80 mV to 0 mV. Human KCNQ1/minK currents were evoked by a single pulse delivered from a holding potential of -80 mV to +60 mV for 4 sec before returning to -80 mV. The parameter measured was the maximum outward current evoked on stepping to +60 mV from the holding potential of -80 mV. hERG currents were evoked by a three-pulse protocol where voltage was first stepped to +40 mV for two sec from a holding potential of –80 mV to inactivate hERG channels. […] The parameter measured was the maximum inward current evoked upon stepping to -110 mV from the holding potential of -30 mV. […]

COC1C=CC=C(C)C(=O)NC2=CC(=O)C(NCCCCCC[P+](c3ccccc3)(c3ccccc3)c3ccccc3)=C(CC(C)CC(OC)C(O)C(C)C=C(C)C1OC(N)=O)C2=O.F[P-](F)(F)(F)(F)F (stereo not shown) [Gamitrinib]
inhibition of HCN4 currents: −0.2 ± 3.7%

From paper PMC8820820, “Feasibility and safety of targeting mitochondria for cancer therapy – preclinical characterization of gamitrinib, a first-in-class, mitochondriaL-targeted small molecule Hsp90 inhibitor” (Cancer Biology & Therapy, 2022)
